Experimental findings from US6576642B2, “Diamide compounds and compositions containing the same” (Kowa Co., Ltd., priority 1996, dated 2003) are described below.

In the test the test system is production of IgE antibody. The test can be described thus: Evaluation of inhibitory effect on production of IgE antibody (mouse spleen B cells cultured with LPS and IL-4, IgE in supernatant by ELISA). Format: cell-based. To be noted: test agent at 10^-5 M; mouse (Balb/C) B cells, LPS + mouse IL-4, IgE in culture supernatant by ELISA. How it is done: Evaluation of inhibitory effect on production of IgE antibody:
A spleen was enucleated from a mouse (Balb/C, male, aged 8 weeks) and shredded in 0.3% BSA/HBSS to prepare single cells by means of a 200-mesh screen. Further, the single cells were hemolyzed by 0.75% ammonium chloride-17 mM Tris solution to prepare a splenocyte suspension (1×10^7/ml) using RPMI 1640 medium/25 mM HEPES/0.3% BSA. After the suspension was reacted with a mouse anti-mouse Thy-1.2 monoclonal antibody (product of Cedarlane Co.) at 4° C. for 1 hour, the reaction mixture was centrifuged, and the sediment cells were suspended again (1×10^7/ml, RPMI/HEPES/BSA). After the suspension was then reacted with a low-cytotoxic rabbit complement (product of Cedarlane Co.) at 37° C. for 1 hour, killed cells were removed by specific gravity centrifugation using lympholyte M (product of Cedarlane Co.) to obtain a B cell fraction as viable cells.
After B cells (10^5/0.2 ml/well) were cultured for a day together with LPS (E. coli 026:B6, product of DIFCO Co.) using a 96-well plate, mouse IL-4 (product of Genzyme Co.) was added to conduct culture further for 7 days.
Each test was added on the first day of the culture, and the amount of IgE in a culture supernatant was meausred by ELISA after the culture, thereby calculating out the inhibitory effect of the agent on the production of an IgE antibody.
(In an ELISA, binding on a coated surface is turned into a signal by an enzyme label.)

As to `COc1cc(/C=C/C=C/C(=O)Nc2cccnc2NC(=O)/C=C/C=C/c2cc(OC)c(OC)c(OC)c2)cc(OC)c1OC` [Example 38, 2,3-bis[5-(3,4,5-trimethoxyphenyl)-penta-(2E,4E)-dienoylamino]pyridine], the “Inhibitory effect on production of IgE (%)” value (from here on “Inhibitory effect … (%)”) came out at 80%.

Regarding `COc1cc(/C=C/C=C/C(=O)N(C)CCCCCCN(C)C(=O)/C=C/C=C/c2cc(OC)c(OC)c(OC)c2)cc(OC)c1OC` [Example 5, N,N′-bis[5-(3,4,5-trimethoxyphenyl)-penta-(2E,4E)-dienoyl]-N,N′-dimethyl-1,6-diaminohexane], the “Inhibitory effect … (%)” value came to 90%.

For `COc1cc(/C=C/C=C/C(=O)Nc2ccccc2NC(=O)/C=C/C=C/c2cc(OC)c(OC)c(OC)c2)cc(OC)c1OC` [Example 26, N,N′-bis[5-(3,4,5-trimethoxyphenyl)-penta-(2E,4E)-dienoyl]-1,2-diaminobenzene], the “Inhibitory effect … (%)” value is 85%. Consider `COc1cc(/C=C/C=C/C(=O)N[C@@H]2CCCC[C@H]2NC(=O)/C=C/C=C/c2cc(OC)c(OC)c(OC)c2)cc(OC)c1OC` (relative stereo) [Example 15, trans-N,N′-bis[5-(3,4,5-trimethoxy-phenyl)penta-(2E,4E)-dienoyl]-1,2-diaminocyclohexane], for which the “Inhibitory effect … (%)” value is 100%. For the compound `COc1cc(/C=C/C=C/C(=O)NCc2ccc(CNC(=O)/C=C/C=C/c3cc(OC)c(OC)c(OC)c3)cc2)cc(OC)c1OC` [Example 22, N,N′-bis[5-(3,4,5-trimethoxyphenyl)-penta-(2E,4E)-dienoyl]-1,4-bis(aminomethyl)benzene], the “Inhibitory effect … (%)” value came out at 90%.
